Drawing on patent publication US10172830B2, “Pyrazolone compounds having human neutrophil elastase inhibitory properties” (CHIESI FARMACEUTICI S.P.A., priority 2016, dated 2019), this text covers IC50 for seven molecules.

For this experiment, the target named is T1, human neutrophil elastase (HNE) (Homo sapiens, UniProt P08246).
T1 construct: purchased Sigma E8140
T1 sequence (P08246 30-247 limits assumed): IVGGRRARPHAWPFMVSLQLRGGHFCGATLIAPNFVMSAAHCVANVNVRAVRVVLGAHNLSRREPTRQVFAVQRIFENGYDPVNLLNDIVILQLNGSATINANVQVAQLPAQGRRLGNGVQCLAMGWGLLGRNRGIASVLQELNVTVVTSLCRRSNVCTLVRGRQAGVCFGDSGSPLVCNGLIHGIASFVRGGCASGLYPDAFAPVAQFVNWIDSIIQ
Nature of the experiment: HNE enzyme assay (human neutrophil elastase enzyme activity assay). The experiment is classed as biochemical. Conditions: human leukocyte elastase 0.00072 U/mL; substrate MeOSuc-Ala-Ala-Pro-Val-AMC 100 μM; 25° C. for 30 minutes; at least two separate experiments; read-out: HNE inhibition (HNE enzyme inhibition, IC50 values). In short, it runs like this:
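Human leukocyte elastase (0.00072 U/mL) with 100 μM MeOSuc-AAPV-AMC in Tris/NaCl/CaCl2/Brij-35 buffer, pH 7.5, 1% DMSO, 30 min at 25 °C; stopped with soybean trypsin inhibitor. AMC fluorescence (380/460 nm) as % inhibition of control; IC50 from dose-response curves, ≥2 experiments.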

A value given as a limit tells only on which side of the number the result lay.

As for `Cc1cc(C[N+]2(C)CCN(C(=O)[C@H](C)NC(=O)c3c(-c4ccnn4-c4ccc(C#N)cc4)n(C)n(-c4cccc(C(F)(F)F)c4)c3=O)CC2)no1` [Example 49, 4-((S)-2-{[2′-(4-Cyano-phenyl)-2-methyl-5-oxo-1-(3-trifluoromethyl-phenyl)-2,5-dihydro-1H,2′H-[3,3′]bipyrazolyl-4-carbonyl]-amino}-propionyl)-1-methyl-1-(5-methyl-isoxazol-3-ylmethyl)-piperazin-1-ium chloride], the IC50 is under 1 nM.

As to `Cc1cc(C[N+](C)(C)CC(=O)N2CCC(NC(=O)c3c(-c4ccnn4-c4ccc(C#N)cc4)n(C)n(-c4cccc(C(F)(F)F)c4)c3=O)CC2)no1` [Example 50, [2-(4-{[2′-(4-Cyano-phenyl)-2-methyl-5-oxo-1-(3-trifluoromethyl-phenyl)-2,5-dihydro-1H,2′H-[3,3′]bipyrazolyl-4-carbonyl]-amino}-piperidin-1-yl)-2-oxo-ethyl]-dimethyl-(5-methyl-isoxazol-3-ylmethyl)-ammonium chloride], the IC50 is under 1 nM.

For `Cn1c(-c2ccnn2-c2ccc(C#N)cc2)c(C(=O)N[C@H]2C[C@H](C(=O)NCC[N+](C)(C)C)C2)c(=O)n1-c1cccc(C(F)(F)F)c1` [Example 51, {2-[(Trans-3-{[2′-(4-cyano-phenyl)-2-methyl-5-oxo-1-(3-trifluoromethyl-phenyl)-2,5-dihydro-1H,2′H-[3,3′]bipyrazolyl-4-carbonyl]-amino}-cyclobutanecarbonyl)-amino]-ethyl}-trimethyl-ammonium benzene sulphonate], the IC50 was under 1 nM.

In the case of `C[C@H](NC(=O)c1c(-c2ccnn2-c2ccc(C#N)cc2)n(C)n(-c2cccc(C(F)(F)F)c2)c1=O)c1ncc(CC[N+](C)(C)C)o1` [Example 52, {2-[2-((S)-1-{[2′-(4-Cyano-phenyl)-2-methyl-5-oxo-1-(3-trifluoromethyl-phenyl)-2,5-dihydro-1H,2′H-[3,3′]bipyrazolyl-4-carbonyl]-amino}-ethyl)-oxazol-5-yl]-ethyl}-trimethyl-ammonium benzene sulphonate], the IC50 was 1 to 10 nM.

On to `CC(C)[C@H](NC(=O)c1c(-c2ccnn2-c2ccc(C#N)cc2)n(C)n(-c2cccc(C(F)(F)F)c2)c1=O)c1ncc(C[N+](C)(C)C)o1` [Example 53, [2-((S)-1-{[2′-(4-Cyano-phenyl)-2-methyl-5-oxo-1-(3-trifluoromethyl-phenyl)-2,5-dihydro-1H,2′H-[3,3′]bipyrazolyl-4-carbonyl]-amino}-2-methyl-propyl)-oxazol-5-ylmethyl]-trimethyl-ammonium benzene sulphonate], for which the IC50 was under 1 nM.

For the molecule `Cn1c(-c2ccnn2-c2ccc(C#N)cc2)c(C(=O)N[C@H]2CC[C@H](CNC(=O)C[N+](C)(C)C)CC2)c(=O)n1-c1cccc(C(F)(F)F)c1` [Example 54, {[(Trans-4-{[2′-(4-cyano-phenyl)-2-methyl-5-oxo-1-(3-trifluoromethyl-phenyl)-2,5-dihydro-1H,2′H-[3,3′]bipyrazolyl-4-carbonyl]-amino}-cyclohexylmethyl)-carbamoyl]-methyl}-trimethyl-ammonium benzene sulphonate], the IC50 was under 1 nM.

On to `Cn1c(-c2ccnn2-c2ccc(C#N)cc2)c(C(=O)N[C@H]2C[C@H](C(=O)NC3CC[N+](C)(C)CC3)C2)c(=O)n1-c1cccc(C(F)(F)F)c1` [Example 55, 4-[(Trans-3-{[2′-(4-cyano-phenyl)-2-methyl-5-oxo-1-(3-trifluoromethyl-phenyl)-2,5-dihydro-1H,2′H-[3,3′]bipyrazolyl-4-carbonyl]-amino}-cyclobutanecarbonyl)-amino]-1,1-dimethyl-piperidinium benzene sulphonate], for which the IC50 is under 1 nM.
